Data: US20240424115A1, “LONG-ACTING INTERLEUKIN-15 RECEPTOR AGONISTS AND RELATED IMMUNOTHERAPEUTIC COMPOSITIONS AND METHODS” (Nektar Therapeutics, priority 2017, published 2024)
“Also recorded” adds a separate entry of the source.

What was measured:
human PBMCs = experiment: HuPBMC-pStat5 assay (flow cytometry, lymphocyte subpopulations); format: cell-based; details: for EC50 (ng/ml)-% pSTAT5 CD3 donor1 / EC50 (ng/ml)-% pSTAT5 CD3 donor2 / EC50 (ng/ml)-MFI CD3 donor1 / EC50 (ng/ml)-MFI CD3 donor2: CD3 cells; for EC50 (ng/ml)-% pSTAT5 CD3 donor1: donor1, 20 min stimulation; for EC50 (ng/ml)-% pSTAT5 CD3 donor2: donor2, 20 min stimulation; for EC50 (ng/ml)-% pSTAT5 Treg donor1 / EC50 (ng/ml)-% pSTAT5 Treg donor2 / EC50 (ng/ml)-MFI Treg donor1 / EC50 (ng/ml)-MFI Treg donor2: CD4-Treg cells; for EC50 (ng/ml)-% pSTAT5 CD4 donor1 / EC50 (ng/ml)-% pSTAT5 CD4 donor2 / EC50 (ng/ml)-MFI CD4 donor1 / EC50 (ng/ml)-MFI CD4 donor2: CD4 cells; for EC50 (ng/ml)-% pSTAT5 CD8 donor1 / EC50 (ng/ml)-% pSTAT5 CD8 donor2 / EC50 (ng/ml)-MFI CD8 donor1 / EC50 (ng/ml)-MFI CD8 donor2: CD8 cells; for EC50 (ng/ml)-% pSTAT5 CD56bright donor1 / EC50 (ng/ml)-% pSTAT5 CD56bright donor2 / EC50 (ng/ml)-MFI CD56bright donor1 / EC50 (ng/ml)-MFI CD56bright donor2: CD56bright cells; for EC50 (ng/ml)-% pSTAT5 CD56dim donor1 / EC50 (ng/ml)-% pSTAT5 CD56dim donor2 / EC50 (ng/ml)-MFI CD56dim donor1 / EC50 (ng/ml)-MFI CD56dim donor2: CD56dim cells; for EC50 (ng/ml) pSTAT5 CD56bright NK: Table 3, CD56bright NK cells; for EC50 (ng/ml)-% pSTAT5 CD3 / EC50 (ng/ml)-% pSTAT5 CD4 / EC50 (ng/ml)-% pSTAT5 CD8 / EC50 (ng/ml)-% pSTAT5 CD56bright / EC50 (ng/ml)-% pSTAT5 CD56dim / EC50 (ng/ml)-% pSTAT5 Treg: Table 7 Summary Table; for EC50 (ng/ml)-MFI CD3 donor1 / EC50 (ng/ml)-MFI CD3 donor2 / EC50 (ng/ml)-MFI Treg donor1 / EC50 (ng/ml)-MFI Treg donor2 / EC50 (ng/ml)-MFI CD4 donor1 / EC50 (ng/ml)-MFI CD4 donor2 / EC50 (ng/ml)-MFI CD8 donor1 / EC50 (ng/ml)-MFI CD8 donor2 / EC50 (ng/ml)-MFI CD56bright donor1 / EC50 (ng/ml)-MFI CD56bright donor2 / EC50 (ng/ml)-MFI CD56dim donor1 / EC50 (ng/ml)-MFI CD56dim donor2: pSTAT5 MFI
Protocol: The potency of IL-15 or long acting IL-15 R agonists on various human lymphocyte subpopulations was determined by phospho-STAT5 (Y694) dose response assay. Frozen human PBMCs from multiple donors were supplied by AllCells. 1×10^6 cells/100ul were cultured in complete RPMI media for 2 hours and then incubated with the indicated concentrations (10,000ng/ml-0.001ng/ml serial dilutions) of IL-15 or conjugates for 20minutes at 37c. The cells were then fixed (using BD Cytofix) and permeabilized (using 100% pre-chilled methanol) and stained with antibodies for CD3, CD4, CD8, CD4-Tregs (CD4+CD25+Foxp3+), CD56 and phosphorylated STAT5 (Y694) before analysis by flow cytometry. Concentration-response relationships were used to calculate the EC50 values.
Assessment of in-vitro activity of exemplary long-acting IL-15 receptor agonists (e.g., Conjugates 1, 3 and 5) was carried out by investigating signaling in NK cell subsets of human PBMCs as shown in FIGS. 10A (CD56bright cells) and 10B (CD56dim cells). STAT5 phosphorylation was evaluated as previously described for assessing IL-15 signaling activity of the long acting IL-15 receptor agonists.
A second study was conducted to investigate/compare the pStat5 response of human PBMCs obtained from two donors (CD3, CD4, CD8, CD56 (bright and dim) and CD4-Tregs (CD25+Foxp3+)) to IL-15, Conjugate 1 and Conjugate 5. An […] dose response was examined using a 10-fold dilution with a dose range of 0.001-10000 ng/ml and a 20 min stimulation. Each of the test articles was diluted in IL-15 buffer+0.1% BSA.
Assessment of in vitro activity of Conjugate 1 was carried out by investigating NK and CD8 JAK/STAT signaling after treatment of human PBMCs with IL-15 or Conjugate 1 at a dose range of 0.001-10000 ng/ml. STAT5 phosphorylation was assessed as previously described.

[1] = Single dose PK study in mice (plasma concentration)
Protocol: C57BL/6 mice (n=3/group) were administered a single intravenous dose of IL-15 (control) at 0.3 mg/kg) or of Conjugate 2 at a dose of 0.3 mg/kg. Following administration, blood samples were collected at various time points post administration (24 hours, 48 hours, 78 hours, 96 hours). […] Finally, at each time point, plasma concentration of drug was determined.
For PK analysis, Conjugate 1 was administered as a single intravenous dose at 0.3 mg/kg in balb/c mice (n=3). Following administration, mice were humanely sacrificed and plasma was collected 24, 48, 72, 96, 120 and 144 hours post treatment. From a separate study, mice were administered a single intravenous dose of IL-15 (0.5 mg/kg). Samples from these mice were collected at the indicated time points within 6 hours of treatment.
Balb/c mice (n=3/group) were administered a single intravenous dose of IL-15 (500 ug/kg) or of Conjugate 1 at 10, 30, 100, 300 and 1000 μg/kg. Blood samples were collected at the indicated time points post administration (conjugate 1:24, 48, 72, 96, 120, 144, 240 hours; IL-15 control: 0.03, 0.08, 0.25, 0.5, 1, 2, 4, 6, 8, hours) and plasma concentration of drug was determined.

[2] = balb/c mice, single i.v., Conjugate 1 0.3 mg/kg, IL-15 0.5 mg/kg (Example 16)

Substance: IL-15: recombinant human IL-15 from E. coli, SEQ ID NO: 1, non-glycosylated, 12.9 kDa; unconjugated comparator
- EC50 (ng/ml)-% pSTAT5 CD3 donor1 (human PBMCs): 0.17 ng/ml
- EC50 (ng/ml)-% pSTAT5 CD3 donor2 (human PBMCs): 0.17 ng/ml
- EC50 (ng/ml)-% pSTAT5 Treg donor1 (human PBMCs): 0.08 ng/ml
- EC50 (ng/ml)-% pSTAT5 Treg donor2 (human PBMCs): 0.084 ng/ml
- EC50 (ng/ml)-% pSTAT5 CD4 donor1 (human PBMCs): 0.177 ng/ml
- EC50 (ng/ml)-% pSTAT5 CD4 donor2 (human PBMCs): 0.20 ng/ml
- EC50 (ng/ml)-% pSTAT5 CD8 donor1 (human PBMCs): 0.17 ng/ml
- EC50 (ng/ml)-% pSTAT5 CD8 donor2 (human PBMCs): 0.15 ng/ml
- EC50 (ng/ml)-% pSTAT5 CD56bright donor1 (human PBMCs): 0.11 ng/ml
- EC50 (ng/ml)-% pSTAT5 CD56bright donor2 (human PBMCs): 0.19 ng/ml
- EC50 (ng/ml)-% pSTAT5 CD56dim donor1 (human PBMCs): 0.26 ng/ml
- EC50 (ng/ml)-% pSTAT5 CD56dim donor2 (human PBMCs): 0.54 ng/ml
- EC50 (ng/ml) pSTAT5 CD56bright NK (human PBMCs): 0.4 ng/ml
- EC50 (ng/ml)-% pSTAT5 CD3 (human PBMCs): 0.17 ng/ml
- EC50 (ng/ml)-% pSTAT5 CD4 (human PBMCs): 0.177 ng/ml
- EC50 (ng/ml)-% pSTAT5 CD8 (human PBMCs): 0.17 ng/ml
- EC50 (ng/ml)-% pSTAT5 CD56bright (human PBMCs): 0.11 ng/ml
- EC50 (ng/ml)-% pSTAT5 CD56dim (human PBMCs; CD56dim): 0.26 ng/ml
- EC50 (ng/ml)-% pSTAT5 Treg (human PBMCs): 0.08 ng/ml
- EC50 (ng/ml)-MFI CD3 donor1 (human PBMCs): 4.0 ng/mL
- EC50 (ng/ml)-MFI CD3 donor2 (human PBMCs): 5.22 ng/mL
- EC50 (ng/ml)-MFI Treg donor1 (human PBMCs): 0.6 ng/mL
- EC50 (ng/ml)-MFI Treg donor2 (human PBMCs): 0.71 ng/mL
- EC50 (ng/ml)-MFI CD4 donor1 (human PBMCs): 3.6 ng/mL
- EC50 (ng/ml)-MFI CD4 donor2 (human PBMCs): 5.8 ng/mL
- EC50 (ng/ml)-MFI CD8 donor1 (human PBMCs): 3.5 ng/mL
- EC50 (ng/ml)-MFI CD8 donor2 (human PBMCs): 5.5 ng/mL
- EC50 (ng/ml)-MFI CD56bright donor1 (human PBMCs): 0.49 ng/mL
- EC50 (ng/ml)-MFI CD56bright donor2 (human PBMCs): 0.96 ng/mL
- EC50 (ng/ml)-MFI CD56dim donor1 (human PBMCs): 1.4 ng/mL
- EC50 (ng/ml)-MFI CD56dim donor2 (human PBMCs): 3.7 ng/mL
- half-life [1, 2]: less than 1 hours
- plasma levels following administration ([1]; mice, single i.v. dose): rapid drop in plasma levels; also recorded: rapidly cleared

Substance: mono-mPEG-SBA40K-IL-15 [Conjugate 1]
- EC50 (ng/ml)-% pSTAT5 CD3 donor1 (human PBMCs): 0.75 ng/ml
- EC50 (ng/ml)-% pSTAT5 CD3 donor2 (human PBMCs): 1.1 ng/ml
- EC50 (ng/ml)-% pSTAT5 Treg donor1 (human PBMCs): 0.23 ng/ml
- EC50 (ng/ml)-% pSTAT5 Treg donor2 (human PBMCs): 0.37 ng/ml
- EC50 (ng/ml)-% pSTAT5 CD4 donor1 (human PBMCs): 0.75 ng/ml
- EC50 (ng/ml)-% pSTAT5 CD4 donor2 (human PBMCs): 0.83 ng/ml
- maximum pSTAT5 response compared with IL-15 (human PBMCs; CD8 and CD56 bright NK cells): achieves the same maximum response as conventional IL-15
- EC50 (ng/ml)-% pSTAT5 CD8 donor1 (human PBMCs): 0.76 ng/ml
- EC50 (ng/ml)-% pSTAT5 CD8 donor2 (human PBMCs): 1.54 ng/ml
- EC50 (ng/ml)-% pSTAT5 CD56bright donor1 (human PBMCs): 1.4 ng/ml
- EC50 (ng/ml)-% pSTAT5 CD56bright donor2 (human PBMCs): 1.9 ng/ml
- EC50 (ng/ml)-% pSTAT5 CD56dim donor1 (human PBMCs): 2.9 ng/ml
- EC50 (ng/ml)-% pSTAT5 CD56dim donor2 (human PBMCs): 5.9 ng/ml
- less potent than IL-15 in engaging CD8 cells (human PBMCs; Example 22, % pSTAT5): 5.5 X
- less potent than IL-15 in engaging CD56 bright NK cells (human PBMCs; Example 22, % pSTAT5): 15 X
- IL-15 signaling (STAT5 phosphorylation) in huPBMCs (human PBMCs; NK cell subsets CD56bright, CD56dim): potently induces such signaling
- EC50 (ng/ml) pSTAT5 CD56bright NK (human PBMCs): 2.4 ng/ml
- EC50 (ng/ml)-% pSTAT5 CD3 (human PBMCs): 0.75 ng/ml
- EC50 (ng/ml)-% pSTAT5 CD4 (human PBMCs): 0.75 ng/ml
- EC50 (ng/ml)-% pSTAT5 CD8 (human PBMCs): 0.76 ng/ml
- EC50 (ng/ml)-% pSTAT5 CD56bright (human PBMCs): 1.4 ng/ml
- EC50 (ng/ml)-% pSTAT5 CD56dim (human PBMCs; CD56dim): 2.9 ng/ml
- EC50 (ng/ml)-% pSTAT5 Treg (human PBMCs): 0.23 ng/ml
- IL-15 more potent than conjugate in inducing CD3, CD4, CD8 and Treg cells (human PBMCs; Table 7 data): 3-4 fold
- IL-15 more potent than conjugate in inducing CD56bright and CD56dim cells (human PBMCs; Table 7 data): approximately 12 fold
- IL-15 more potent than conjugate, CD3 and CD4 induction (human PBMCs; pSTAT5 EC50, CD3 and CD4): 4-6 fold
- IL-15 more potent than conjugate, CD56 induction (human PBMCs; pSTAT5 EC50, CD56): ~10 fold
- IL-15 more potent than conjugate, Treg and CD8 induction (human PBMCs; pSTAT5 EC50, Treg and CD8): 3-5 fold
- EC50 (ng/ml)-MFI CD3 donor1 (human PBMCs): 22.1 ng/mL
- EC50 (ng/ml)-MFI CD3 donor2 (human PBMCs): 108.8 ng/mL
- EC50 (ng/ml)-MFI Treg donor1 (human PBMCs): 2.5 ng/mL
- EC50 (ng/ml)-MFI Treg donor2 (human PBMCs): 2.9 ng/mL
- EC50 (ng/ml)-MFI CD4 donor1 (human PBMCs): 23.54 ng/mL
- EC50 (ng/ml)-MFI CD4 donor2 (human PBMCs): 106.5 ng/mL
- EC50 (ng/ml)-MFI CD8 donor1 (human PBMCs): 16.73 ng/mL
- EC50 (ng/ml)-MFI CD8 donor2 (human PBMCs): 99.76 ng/mL
- EC50 (ng/ml)-MFI CD56bright donor1 (human PBMCs): 7.8 ng/mL
- EC50 (ng/ml)-MFI CD56bright donor2 (human PBMCs): 12.4 ng/mL
- EC50 (ng/ml)-MFI CD56dim donor1 (human PBMCs): 23.25 ng/mL
- EC50 (ng/ml)-MFI CD56dim donor2 (human PBMCs): 73.05 ng/mL
- half-life ([1]; Balb/c mice, single i.v. 10-1000 μg/kg (Example 23)): approximately 14 hours
- half-life [1, 2]: approximately 12 hours
